Measured values: ChEMBL document CHEMBL2074209, “Coinduction of MDR-1 multidrug-resistance and cytochrome P-450 genes in rat liver by xenobiotics” (J Natl Cancer Inst, 1988)

Molecular target: Multidrug resistance protein 1a (Rattus norvegicus) (UniProt Q6PSM0)
Assay: TP_TRANSPORTER: Northern blot in vivo Fischer male rat
Assay type: functional, organism-based

Chain of Multidrug resistance protein 1a (Rattus norvegicus) (Q6PSM0 as listed by the source): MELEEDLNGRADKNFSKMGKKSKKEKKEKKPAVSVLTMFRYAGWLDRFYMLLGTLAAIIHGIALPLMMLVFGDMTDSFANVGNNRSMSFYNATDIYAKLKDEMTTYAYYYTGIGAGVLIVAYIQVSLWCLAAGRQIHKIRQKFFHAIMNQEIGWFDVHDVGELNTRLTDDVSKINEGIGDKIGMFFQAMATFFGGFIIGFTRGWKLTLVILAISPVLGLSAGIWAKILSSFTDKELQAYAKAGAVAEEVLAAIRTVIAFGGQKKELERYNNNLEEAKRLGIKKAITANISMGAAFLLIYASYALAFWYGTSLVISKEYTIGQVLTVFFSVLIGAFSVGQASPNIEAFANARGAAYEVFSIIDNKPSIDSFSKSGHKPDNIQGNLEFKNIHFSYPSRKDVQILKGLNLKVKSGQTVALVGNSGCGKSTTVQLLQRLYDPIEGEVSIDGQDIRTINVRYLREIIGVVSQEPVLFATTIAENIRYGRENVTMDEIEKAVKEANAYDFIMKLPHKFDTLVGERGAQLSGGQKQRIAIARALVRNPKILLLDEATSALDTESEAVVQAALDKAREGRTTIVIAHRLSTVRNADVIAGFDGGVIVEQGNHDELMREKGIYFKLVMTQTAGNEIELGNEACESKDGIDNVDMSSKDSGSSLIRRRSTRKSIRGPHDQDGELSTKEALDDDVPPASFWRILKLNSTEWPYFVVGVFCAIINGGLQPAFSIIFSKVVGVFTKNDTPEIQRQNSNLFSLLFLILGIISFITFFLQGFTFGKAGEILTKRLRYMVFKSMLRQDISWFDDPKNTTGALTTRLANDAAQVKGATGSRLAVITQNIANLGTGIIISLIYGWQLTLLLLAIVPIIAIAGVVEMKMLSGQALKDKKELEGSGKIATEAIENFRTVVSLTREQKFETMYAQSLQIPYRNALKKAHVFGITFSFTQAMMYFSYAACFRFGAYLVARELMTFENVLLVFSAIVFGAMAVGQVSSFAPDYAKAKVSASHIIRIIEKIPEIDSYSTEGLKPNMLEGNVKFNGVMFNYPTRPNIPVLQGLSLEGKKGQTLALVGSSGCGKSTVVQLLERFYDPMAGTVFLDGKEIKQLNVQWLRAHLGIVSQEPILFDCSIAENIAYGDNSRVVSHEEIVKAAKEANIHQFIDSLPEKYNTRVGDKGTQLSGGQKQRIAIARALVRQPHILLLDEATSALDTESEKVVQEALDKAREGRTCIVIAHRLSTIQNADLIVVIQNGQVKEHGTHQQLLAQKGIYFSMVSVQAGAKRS

Structure (SMILES)	Activity
c1ccc2c(c1)Nc1ccccc1S2	inducer [+]
Clc1cc2c(cc1Cl)Oc1cc(Cl)c(Cl)cc1O2	inducer [+]
COc1cc2c(c3oc(=O)c4c(c13)CCC4=O)[C@@H]1C=CO[C@@H]1O2	inducer [+]
CC(=O)N(O)c1ccc2c(c1)Cc1ccccc1-2	inducer [+]
C/C=C/c1ccc2c(c1)OCO2	inducer [+]
